According to PMC6248945, “Antibacterial properties of the pituitary adenylate cyclase-activating polypeptide: A new human antimicrobial peptide” (PLoS ONE, 2018):
≈ marks a conversion by molar mass, not a printed value. Where two headings read alike, the source gives them in different places. Where a SMILES comes first, the peptide text is derived from it.

Assays:
[1] = system: Burkholderia cenocepacia (CEP0511 Gvar3b); conditions: CLSI microdilution, MHB, 37 °C, 20h, OD read-out; at least triplicate
[2] = relative to PACAP38; cited from earlier work
[3] = system: Burkholderia thailendensis (ATCC700388); conditions: CLSI microdilution, MHB, 37 °C, 20h, OD read-out; at least triplicate
[4] = system: Pseudomonas putida (KT2440); conditions: 20 h
[5] = system: Burkholderia cenocepacia (K56-2); conditions: 20 h
Escherichia coli (JM109) = experiment: MIC, CLSI microdilution; format: cell-based; conditions: MHB, 37 °C, 20h, OD read-out, at least triplicate
Method: Assays were performed according to the CLSI microdilution method. Briefly, the bacterial strains were inoculated and allowed to reach an OD600 of 0.08–0.13 prior to dilution to 10^6 CFU/mL in Mueller-Hinton broth (MHB). A bacterial suspension (50 μL) was then added to each well of a 96-well microplate containing serially diluted peptide solutions (50 μL in MHB) and incubated at 37 °C for 20h. A well containing sterilized medium was used as a sterility control and another well containing no added peptide served as a growth control.

[6] = system: Staphylococcus aureus (Newman); conditions: 20 h
[7] = system: Staphylococcus aureus (ATCC6538#P); conditions: ATCC6538, 20 h
[8] = system: Bacillus circulans (LSPQ3543); conditions: 20 h
[9] = system: Pseudomonas aeruginosa (ATCC33350-Sero-2); conditions: ATCC33350, 20 h
Bacillus velezensis = conditions: 20 h
Bacillus subtilis (PY79) = conditions: PY79, 20 h
[10] = system: Burkholderia cenocepacia (LMG18829); conditions: LMG18829, 20 h
[11] = system: Escherichia coli ATCC25922; conditions: ATCC25922, 20 h
[12] = system: Serratia marcescens (ATCC14756); conditions: ATCC14756, 20 h
[13] = system: Escherichia coli (O157 :H7); conditions: CLSI microdilution, MHB, 37 °C, 20h, OD read-out; at least triplicate
[14] = system: Actinobacillus pleuropneumoniae (4074); conditions: 20 h
DPP-IV = system: DPP-IV; set-up: method as in PMID 18353507; conditions: cited from earlier work
[15] = system: Burkholderia cenocepacia (LMG19240); conditions: CLSI microdilution, MHB, 37 °C, 20h, OD read-out; at least triplicate
[16] = system: Bacillus amyloliquefaciens (LMG22478); conditions: LMG22478, 20 h
[17] = system: Pseudomonas aeruginosa (PA14); conditions: PA14, 20 h
[18] = system: Pseudomonas fluorescens (MF37); conditions: 20 h
[19] = system: Bacillus cereus (ATCC11778); conditions: ATCC11778, 20 h
[20] = system: Burkholderia cenocepacia (J2315); conditions: 20 h

Row | Structure (SMILES) | MIC, Burkholderia cenocepacia (CEP0511 Gvar3b) [1] | Metabolic stability in human plasma [2] | MIC, Burkholderia thailendensis (ATCC700388) [3] | MIC, Pseudomonas putida (KT2440) [4] | MIC, Burkholderia cenocepacia (K56-2) [5] | MIC, Escherichia coli (JM109) (Escherichia coli (JM109)) | MIC, Staphylococcus aureus (Newman) [6] | MIC, Staphylococcus aureus (ATCC6538#P) [7] | MIC, Bacillus circulans (LSPQ3543) [8] | MIC, Pseudomonas aeruginosa (ATCC33350-Sero-2) [9] | MIC, Bacillus velezensis (Bacillus velezensis) | MIC, Bacillus subtilis (PY79) (Bacillus subtilis (PY79)) | MIC, Burkholderia cenocepacia (LMG18829) [10] | MIC, Escherichia coli ATCC25922 [11] | MIC, Serratia marcescens (ATCC14756) [12] | MIC, Escherichia coli (O157 :H7) [13] | MIC, Actinobacillus pleuropneumoniae [14] | Metabolic stability against DPP-IV (DPP-IV) | MIC, Burkholderia cenocepacia (LMG19240) [15] | MIC, Bacillus amyloliquefaciens [16] | other results
1 | CC[C@H](C)[C@H](NC(=O)CNC(=O)[C@H](CC(=O)O)NC(=O)[C@H](CO)NC(=O)[C@@H](N)Cc1c[nH]cn1)C(=O)N[C@@H](Cc1ccccc1)C(=O)N[C@H](C(=O)N[C@@H](CC(=O)O)C(=O)N[C@@H](CO)C(=O)N[C@@H](Cc1ccc(O)cc1)C(=O)N[C@@H](CO)C(=O)N[C@@H](CCCNC(=N)N)C(=O)N[C@@H](Cc1ccc(O)cc1)C(=O)N[C@@H](CCCNC(=N)N)C(=O)N[C@@H](C)C(=O)N[C@@H](CCC(N)=O)C(=O)N[C@@H](CCSC)C(=O)N[C@@H](C)C(=O)N[C@H](C(=O)N[C@@H](CCCCN)C(=O)N[C@@H](CCCCN)C(=O)N[C@@H](Cc1ccc(O)cc1)C(=O)N[C@@H](CC(C)C)C(=O)N[C@@H](C)C(=O)N[C@@H](C)C(=O)N[C@H](C(=O)N[C@@H](CC(C)C)C(=O)NCC(=O)N[C@@H](CCCCN)C(=O)N[C@@H](CCCNC(=N)N)C(=O)N[C@@H](Cc1ccc(O)cc1)C(=O)N[C@@H](CCCCN)C(=O)N[C@@H](CCC(N)=O)C(=O)N[C@@H](CCCNC(=N)N)C(=O)N[C@H](C(=O)N[C@@H](CCCCN)C(=O)N[C@@H](CC(N)=O)C(=O)N[C@@H](CCCCN)C(N)=O)C(C)C)C(C)C)C(C)C)[C@@H](C)O [compound 3, [Ala^15]PACAP38] (H-HSDGIFTDSYSRYRAQMAVKKYLAAVLGKRYKQRVKNK-NH2) | >200 µg/mL | improved metabolic stability | >200 µg/mL | 93 µg/mL (≈ 20.8 µM) | >200 µg/mL | 93 µg/mL (≈ 20.8 µM) | >200 µg/mL | >200 µg/mL | 21 µg/mL (≈ 4.69 µM) | >200 µg/mL | 33 µg/mL (≈ 7.37 µM) | 5 µg/mL (≈ 1.12 µM) | >200 µg/mL | >200 µg/mL | >200 µg/mL | >200 µg/mL | 112 µg/mL (≈ 25 µM) | improved metabolic stability | >200 µg/mL | 10 µg/mL (≈ 2.23 µM) | MIC, Pseudomonas aeruginosa (PA14) [17]: >200 µg/mL; MIC, Pseudomonas fluorescens (MF37) [18]: >200 µg/mL; MIC, Bacillus subtilis (2597) (Bacillus subtilis (2597); 2597, 20 h): 111 µg/mL (≈ 24.8 µM); MIC, Bacillus cereus (ATCC11778) [19]: >200 µg/mL; MIC, Burkholderia cenocepacia (J2315) [20]: 9 µg/mL (≈ 2.01 µM)
2 | CC[C@H](C)[C@H](NC(=O)CNC(=O)[C@H](CC(=O)O)NC(=O)[C@H](CO)NC(=O)[C@@H](N)Cc1c[nH]cn1)C(=O)N[C@@H](Cc1ccccc1)C(=O)N[C@H](C(=O)N[C@@H](CC(=O)O)C(=O)N[C@@H](CO)C(=O)N[C@@H](Cc1ccc(O)cc1)C(=O)N[C@@H](CO)C(=O)N[C@@H](CCCNC(=N)N)C(=O)N[C@@H](Cc1ccc(O)cc1)C(=O)N[C@@H](CCCNC(=N)N)C(=O)N[C@@H](CCCCN)C(=O)N[C@@H](CCC(N)=O)C(=O)N[C@@H](CCSC)C(=O)N[C@@H](C)C(=O)N[C@H](C(=O)N[C@@H](C)C(=O)N[C@@H](CCCCN)C(=O)N[C@@H](Cc1ccc(O)cc1)C(=O)N[C@@H](CC(C)C)C(=O)N[C@@H](C)C(=O)N[C@@H](C)C(=O)N[C@H](C(=O)N[C@@H](CC(C)C)C(=O)NCC(=O)N[C@@H](CCCCN)C(=O)N[C@@H](CCCNC(=N)N)C(=O)N[C@@H](Cc1ccc(O)cc1)C(=O)N[C@@H](CCCCN)C(=O)N[C@@H](CCC(N)=O)C(=O)N[C@@H](CCCNC(=N)N)C(=O)N[C@H](C(=O)N[C@@H](CCCCN)C(=O)N[C@@H](CC(N)=O)C(=O)N[C@@H](CCCCN)C(N)=O)C(C)C)C(C)C)C(C)C)[C@@H](C)O [compound 4, [Ala^20]PACAP38] (H-HSDGIFTDSYSRYRKQMAVAKYLAAVLGKRYKQRVKNK-NH2) | >200 µg/mL | improved metabolic stability | >200 µg/mL | 56 µg/mL (≈ 12.5 µM) | >200 µg/mL | 28 µg/mL (≈ 6.25 µM) | >200 µg/mL | >200 µg/mL | 47 µg/mL (≈ 10.5 µM) | >200 µg/mL | 61 µg/mL (≈ 13.6 µM) | 3 µg/mL (≈ 0.67 µM) | >200 µg/mL | >200 µg/mL | >200 µg/mL | 168 µg/mL (≈ 37.5 µM) | >200 µg/mL | improved metabolic stability | >200 µg/mL | 7 µg/mL (≈ 1.56 µM) | MIC, Pseudomonas aeruginosa (PA14) [17]: 112 µg/mL (≈ 25 µM); MIC, Pseudomonas fluorescens (MF37) [18]: 112 µg/mL (≈ 25 µM); MIC, Bacillus subtilis (2597) (Bacillus subtilis (2597); CLSI microdilution, MHB, 37 °C, 20h, OD read-out, at least triplicate): 168 µg/mL (≈ 37.5 µM); MIC, Bacillus cereus (ATCC11778) [19]: >200 µg/mL; MIC, Burkholderia cenocepacia (J2315) [20]: 5 µg/mL (≈ 1.12 µM)
